# Measured values: US4731109A, “Herbicidal 2-haloacetanilides” (Monsanto Company, priority 1982, dated 1988)
# How the values were obtained:
# soybeans = assay: Herbicidal effect in a variety of soil types; type: in vivo
# purple nutsedge = assay: Greenhouse pre-emergence GR15/GR85 selectivity test; type: in vivo; conditions: Table XV; for selectivity factor (GR15/GR85): in rape
# From the text: (§1) A good grade of top soil is placed in aluminum pans and compacted to a depth of three-eighths to one-half inch from the top of the pan. On the top of the soil is placed a number of seeds or vegetative propagules of various plant species. The soil required to level fill the pans after seeding or adding vegetative propagules is weighed into a pan. The soil and a known amount of the active ingredient applied in a solvent or as a wettable powder suspension are thoroughly mixed, and used to cover the prepared pans. After treatment, the pans are given an initial overhead irrigation of eater, equivalent to one-fourth inch (0.64 cm) rainfall, then watered by subirrigation as need to give adequate moisture for germination and growth. As an alternative procedure, the overhead irrigation may be omitted. Observations are made about 2-3 weeks after seeding and treatment.
# (§2) In the discussion and tables of data below, reference is made to herbicide application rates symbolized as "GR15 " and "GR85 "; these rates are given in kilograms per hectare (kg/ha) which are convertible into pounds per acre (lbs/A) by dividing the kg/ha rate by 1.12.
# (§3) A further guide to the effectiveness of a chemical as a selective herbicide is the "selectivity factor" ("SF") for a herbicide in given crops and weeds. The selectivity factor is a measure of the relative degree of crop safety and weed injury and is expressed in terms of the GR15 /GR85 ratio, i.e., the GR15 rate for the crop divided by the GR85 rate for the weed, both rates in kg/ha (lb/A). In the tables below, selectivity factors are shown in parenthesis following the GR85 rate for each weed; the symbol "NS" indicates "non-selective". Marginal or undetermined selectivity is indicated by a dash (--).
# (§4) Additionally, pre-emergence herbicidal data from other tests have established that compounds according to this invention also selectively suppress quackgrass, yellow nutsedge and/or other weeds in one or more of the crops cotton, peanuts, bush beans and/or rape. For example, in Table VI are presented data showing the herbicidal selectivity of the compounds of Examples 1 and 2 against quackgrass in rape and snap beans. Unless otherwise noted; greenhouse tests in Table VI and in other tables below involved herbicide treatments by soil incorporation and an initial overhead irrigation followed by subirrigation as described above.
# In other greenhouse tests, compounds according to this invention have shown selective control of a variety of annual and perennial weeds in various crops. As further illustrative, the compound of Example 1 selectively controlled purple nutsedge in both corn nd soybeans, the respective crop/weed GR15 /GR85 ratios (expressed in kg/ha) being 0.67/0.25 (S.F.=2.7) in corn and 1.1/0.25 (S.F.=4.5) in soybeans. The compound of Example 8 has shown selective control of yellow nutsedge and quackgrass in corn and soybeans. The respective crop/yellownutsedge GR15 /GR85 ratios being >2.2/0.95 (S.F.=2.5) in corn; 2.2/0.5 (SF=4.5) in soybeans and the respective GR15 /GR85 ratios for both corn and soybeans in quackgrass being >2.2/0.5 (S.F.=4.5). In a test against yellow nutsedge in cotton, the GR15 /GR85 ratio (average of two replicates) was 2.0/0.95 (S.F.=2).
# (§5) In another greenhouse test, the compounds of Examples 3-5, 9 and 10 were tested for their herbicidal efficacy against a variety of resistant annual and perennial weeds in rape.
# corn = assay: as above; type: in vivo
# Outline: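 Active ingredient mixed into cover soil over seeded pans (pre-emergence soil incorporation), initial overhead irrigation equal to 0.64 cm rainfall, then subirrigation. Scored about 2-3 weeks after seeding; GR15 (crop) and GR85 (weed) rates in kg/ha, selectivity factor = crop GR15 / weed GR85.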
# Quackgrass [1] = assay: Herbicidal effect in a variety of soil types; type: in vivo; conditions: for selectivity factor (GR15/GR85): in soybeans
# From the text: The herbicide treatments were by soil incorporation with seeds planted 0.375 in (0.95 cm) deep, with 0.25 in (0.64 cm overhead irrigation. Observations were made about three weeks after treatment. Selectivity factors are shown in parenthesis.
# rape = assay: Greenhouse pre-emergence GR15/GR85 selectivity test; type: in vivo; conditions: Table XV
# From the text: as §1, §2, §3, §4, §5
# wild proso millet = assay: as above; type: in vivo, wild proso millet (panicum milicaeum); conditions: Table XVI
# From the text: as §1, with “After treatment, the pans are given an initial overhead irrigation of eater, equivalent to one-fourth inch (0.64 cm) rainfall, then watered by subirrigation as need to give adequate moisture for germination and growth.” left out
# as §3
# (§6) Unless otherwise noted; greenhouse tests in Table VI and in other tables below involved herbicide treatments by soil incorporation and an initial overhead irrigation followed by subirrigation as described above.
# fall panicum = assay: as above; type: in vivo; conditions: Table XVI
# From the text: as §1, with “After treatment, the pans are given an initial overhead irrigation of eater, equivalent to one-fourth inch (0.64 cm) rainfall, then watered by subirrigation as need to give adequate moisture for germination and growth.” left out
# as §3, §6
# Yellow Nutsedge = assay: as above; type: in vivo
# Quackgrass [2] = assay: as above; type: in vivo
# [3] = Drummer silty clay, Table XVII C
# [4] = Wabash silty clay, Table XVII C
# [5] = yellow nutsedge in corn, Table IV, Replicate #2
# [6] = yellow nutsedge in soybeans, Table IV, Replicate #2
# [7] = quackgrass in corn, Table IV, Replicate #2
# [8] = quackgrass in soybeans, Table IV, Replicate #2
# [9] = Drummer silty clay, Table XVII B
# [10] = Wabash silty clay, Table XVII B
smiles,measurement,setting,value
"CCOCN(C(=O)CCl)c1c(CC)cccc1C(F)(F)F [Example 9, N--(ethoxymethyl)-2'-trifluoromethyl-6'-ethyl-2-chloroacetanilide]",GR15,soybeans; [3],> 2.2 Kg/Ha
same,GR15,"soybeans; Florida muck, Table XVII C",> 2.2 Kg/Ha
same,GR15,"soybeans; Ray silt loam, Table XVII C",> 2.2 Kg/Ha
same,GR15,"soybeans; Sarpy silty clay, Table XVII C",> 2.2 Kg/Ha
same,GR15,soybeans; [4],3.0 Kg/Ha
same,GR85 Rate,purple nutsedge,0.19 Kg/Ha
same,selectivity factor (GR15/GR85),purple nutsedge,5.2
same,GR15,"corn; Table IV, Replicate #2",2.2 Kg/Ha
same,GR15,corn; Table XII,2.5 Kg/Ha
same,GR15,corn; Table XIII,1.7 Kg/Ha
same,GR85,Quackgrass [1]; [3],0.17 Kg/Ha
same,GR85,"Quackgrass [1]; Florida muck, Table XVII C",0.73 Kg/Ha
same,GR85,"Quackgrass [1]; Ray silt loam, Table XVII C",0.13 Kg/Ha
same,GR85,"Quackgrass [1]; Sarpy silty clay, Table XVII C",0.13 Kg/Ha
same,GR85,Quackgrass [1]; [4],0.24 Kg/Ha
same,selectivity factor (GR15/GR85),Quackgrass [1]; [3],> 13
same,selectivity factor (GR15/GR85),"Quackgrass [1]; Florida muck, Table XVII C",> 3
same,selectivity factor (GR15/GR85),"Quackgrass [1]; Ray silt loam, Table XVII C",> 16.5
same,selectivity factor (GR15/GR85),"Quackgrass [1]; Sarpy silty clay, Table XVII C",> 16.5
same,selectivity factor (GR15/GR85),Quackgrass [1]; [4],12.5
same,GR15 Rate,rape,0.98 Kg/Ha
same,GR85 Rate,wild proso millet,0.56 Kg/Ha
same,selectivity factor (GR15/GR85),wild proso millet; in lima beans,1.3
same,selectivity factor (GR15/GR85),wild proso millet; in peanuts,1.6
same,GR85 Rate,fall panicum,0.13 Kg/Ha
same,selectivity factor (GR15/GR85),fall panicum; in lima beans,5.8
same,selectivity factor (GR15/GR85),fall panicum; in peanuts,6.9
same,GR85,"Yellow Nutsedge; Table IV, Replicate #2",0.17 Kg/Ha
same,GR85,Yellow Nutsedge; Table XII,0.21 Kg/Ha
same,GR85,Yellow Nutsedge; in cotton,0.47 kg/ha
same,S.F. (GR15/GR85),Yellow Nutsedge; in cotton,1.5
same,selectivity with respect to yellow nutsedge in rice,Yellow Nutsedge; in rice,non-selective
same,selectivity factor (GR15/GR85),Yellow Nutsedge; [5],13
same,selectivity factor (GR15/GR85),"Yellow Nutsedge; yellow nutsedge in corn, Table XII",12
same,selectivity factor (GR15/GR85),"Yellow Nutsedge; yellow nutsedge in cotton, Table XII",12
same,selectivity factor (GR15/GR85),Yellow Nutsedge; [6],12.5
same,selectivity factor (GR15/GR85),"Yellow Nutsedge; yellow nutsedge in soybeans, Table XII",9.5
same,GR85,"Quackgrass [2]; Table IV, Replicate #2",0.20 Kg/Ha
same,GR85,Quackgrass [2]; Table XIII,0.36 Kg/Ha
same,selectivity against quackgrass in wheat,Quackgrass [2]; in wheat,non-selective
same,selectivity factor (GR15/GR85),Quackgrass [2]; [7],11
same,selectivity factor (GR15/GR85),"Quackgrass [2]; quackgrass in corn, Table XIII",4.7
same,selectivity factor (GR15/GR85),Quackgrass [2]; [8],10.5
same,selectivity factor (GR15/GR85),"Quackgrass [2]; quackgrass in soybeans, Table XIII",4.7
"Cc1cccc(C(F)(F)F)c1N(COC(C)C)C(=O)CCl [Example 4, N--(isopropoxymethyl)-2'-trifluoromethyl-6'-methyl-2-chloroacetanilide]",GR15,soybeans; [9],2.2 Kg/Ha
same,GR15,"soybeans; Florida muck, Table XVII B",> 2.2 Kg/Ha
same,GR15,"soybeans; Florida sand, Table XVII B",2.2 Kg/Ha
same,GR15,"soybeans; Ray silt loam, Table XVII B",3.0 Kg/Ha
same,GR15,"soybeans; Sarpy silty clay, Table XVII B",2.2 Kg/Ha
same,GR15,soybeans; [10],3.0 Kg/Ha
same,GR85 Rate,purple nutsedge,0.25 Kg/Ha
same,selectivity factor (GR15/GR85),purple nutsedge,> 4.5
same,GR15,"corn; Table IV, Replicate #1",1.7 Kg/Ha
same,GR15,"corn; Table IV, Replicate #2",2.0 Kg/Ha
same,GR85,Quackgrass [1]; [9],0.11 Kg/Ha
same,GR85,"Quackgrass [1]; Florida muck, Table XVII B",0.67 Kg/Ha
same,GR85,"Quackgrass [1]; Florida sand, Table XVII B",0.25 Kg/Ha
same,GR85,"Quackgrass [1]; Ray silt loam, Table XVII B",0.13 Kg/Ha
same,GR85,"Quackgrass [1]; Sarpy silty clay, Table XVII B",0.39 Kg/Ha
same,GR85,Quackgrass [1]; [10],0.24 Kg/Ha
same,selectivity factor (GR15/GR85),Quackgrass [1]; [9],20
same,selectivity factor (GR15/GR85),"Quackgrass [1]; Florida muck, Table XVII B",> 3
same,selectivity factor (GR15/GR85),"Quackgrass [1]; Florida sand, Table XVII B",9
same,selectivity factor (GR15/GR85),"Quackgrass [1]; Ray silt loam, Table XVII B",23
same,selectivity factor (GR15/GR85),"Quackgrass [1]; Sarpy silty clay, Table XVII B",5.5
same,selectivity factor (GR15/GR85),Quackgrass [1]; [10],12.5
same,GR15 Rate,rape,> 1.12 Kg/Ha
same,GR85 Rate,wild proso millet,0.47 Kg/Ha
same,selectivity factor (GR15/GR85),wild proso millet; in lima beans,> 2.4
same,selectivity factor (GR15/GR85),wild proso millet; in peanuts,2.1
same,GR85 Rate,fall panicum,0.13 Kg/Ha
same,selectivity factor (GR15/GR85),fall panicum; in lima beans,> 8.6
same,selectivity factor (GR15/GR85),fall panicum; in peanuts,7.5
same,GR85,"Yellow Nutsedge; Table IV, Replicate #1",0.28 Kg/Ha
same,GR85,"Yellow Nutsedge; Table IV, Replicate #2",0.22 Kg/Ha
same,selectivity factor (GR15/GR85),"Yellow Nutsedge; yellow nutsedge in corn, Table IV, Replicate #1",6
same,selectivity factor (GR15/GR85),Yellow Nutsedge; [5],8.5
same,selectivity factor (GR15/GR85),"Yellow Nutsedge; yellow nutsedge in soybeans, Table IV, Replicate #1",4
same,selectivity factor (GR15/GR85),Yellow Nutsedge; [6],7.5
same,GR85,"Quackgrass [2]; Table IV, Replicate #1",0.33 Kg/Ha
same,GR85,"Quackgrass [2]; Table IV, Replicate #2",0.18 Kg/Ha
same,selectivity factor (GR15/GR85),"Quackgrass [2]; quackgrass in corn, Table IV, Replicate #1",5
same,selectivity factor (GR15/GR85),Quackgrass [2]; [7],11
same,selectivity factor (GR15/GR85),"Quackgrass [2]; quackgrass in soybeans, Table IV, Replicate #1",3
same,selectivity factor (GR15/GR85),Quackgrass [2]; [8],9.5
